Measured values: patent US20260200921A1, “SUBSTITUTED AMINOPYRIDINE COMPOUNDS AS AKT INHIBITORS” (Atavistik Bio, Inc., priority 2023, published 2026)

Assays:
wildtype AKT1 = biological target: T1, wildtype AKT1 (Homo sapiens, UniProt P31749); assay: AKT1 kinase assay, wildtype (TR-FRET, Lance); type: biochemical; conditions: full-length human recombinant wildtype AKT1 activated by PDPK1; Ulight-CREBtide substrate; either 50 μM ATP or 2 mM ATP
T1 construct: Purified human recombinant kinase full-length wildtype AKT1 was expressed in insect cells; made in house; host or cells: insect cells
Method: AKT1 kinase assay: Inhibitory effects of compounds on wildtype AKT1 were undertaken in a 10-pt dose response kinase activity assay measuring phospho-peptide product formation based on TR-FRET signal as described in the following paragraph.
(§1) Purified human recombinant kinase full-length wildtype AKT1 was expressed in insect cells and activated in vitro by PDPK1. Ulight™-CREBtide (PerkinElmer, catalog number TRF0107) was used as the peptide substrate. The reaction buffer consisted of 50 mM HEPES pH 7.5, 10 mM MgCl2, 0.01% Triton X-100, 0.01% BSA, 2 mM DTT, 0.6 nM AKT1, 50 nM Ulight™-CREBtide and either 50 μM ATP or 2 mM ATP. The compound solution was prepared as 10 mM DMSO stock. For the assay, a 1:3 serial dilution 10-pt dose response of test compounds, in duplicate, for each concentration were dispensed into a 384-well plate (Corning, catalog number 4513). Final DMSO concentration in the assay was 1%. The enzyme mixture (5 μL, 1.2 nM) were added and the mixture was incubated for 15 min at RT prior to the start of the kinase reaction by the addition of 5 μL substrate mixture (100 nM Ulight™-CREBtide). The reaction was stopped after 60 min of incubation at RT by the addition of 10 μL of Detection Mix (PerkinElmer. #CR97-100) consisting of Europium-anti-phospho-CREB (Ser133) (Perkin Elmer, catalog numberTRF0200). Incubation with the detection mix for a further 60 min allowed binding of antibody to the phospho-Ulight™ CREBtide. The fluorescence emissions at 620 nm and 665 nm after excitation at 350 nm was measured using Envision reader. The ratio of the emissions at 665 nm and at 620 nm provided the measure for the amount of phosphorylated CREBtide product of AKT1 kinase activity. To determine the IC50 values, the data was normalized (enzyme reaction without inhibitor=0% inhibition, all other assay components but no enzyme=100% inhibition) and IC50 values were calculated by a 4-parameter fit using an in-house developed protocol.

AKT1 E17K = biological target: T2, AKT1 E17K (Homo sapiens, UniProt P31749, E17K); assay: AKT1 E17K kinase assay (TR-FRET, Lance); type: biochemical; conditions: full-length human recombinant AKT1 E17K activated by PDPK1; Ulight-CREBtide substrate; either 50 μM ATP or 2 mM ATP
T2 construct: Purified human recombinant kinase full-length AKT1 E17K was expressed in insect cells; made in house; host or cells: insect cells
Method: AKT1 E17K kinase assay: Inhibitory effects of compounds on AKT1 E17K were undertaken in a 10-pt dose response kinase activity assay measuring phospho-peptide product formation based on TR-FRET signal as described in the following paragraph.
as §1, with “full-length” for “full-length wildtype”, “AKT1 E17K” for “AKT1”, “AKT1 E17K,” for “AKT1,”, “(PerkinElmer,” for “(PerkinElmer.”

T1 sequence (P31749 whole entry): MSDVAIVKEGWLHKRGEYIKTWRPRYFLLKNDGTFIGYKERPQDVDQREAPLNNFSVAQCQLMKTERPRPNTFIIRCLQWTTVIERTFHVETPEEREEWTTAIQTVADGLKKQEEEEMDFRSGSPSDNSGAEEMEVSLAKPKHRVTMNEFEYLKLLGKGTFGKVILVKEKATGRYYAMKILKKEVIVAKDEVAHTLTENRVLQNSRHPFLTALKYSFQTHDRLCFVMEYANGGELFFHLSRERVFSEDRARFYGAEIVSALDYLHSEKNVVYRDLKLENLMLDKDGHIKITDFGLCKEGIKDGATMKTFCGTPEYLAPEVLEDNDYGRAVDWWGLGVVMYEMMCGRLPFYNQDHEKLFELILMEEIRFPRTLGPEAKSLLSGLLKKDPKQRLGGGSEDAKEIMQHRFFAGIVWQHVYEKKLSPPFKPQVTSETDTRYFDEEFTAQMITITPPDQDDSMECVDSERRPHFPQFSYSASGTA
T2 sequence (P31749 whole entry E17K): as the sequence (P31749 whole entry) above, with E17K counted along it

`Nc1ncccc1-c1nc2ccc(-c3ccccc3)nc2n1-c1ccc(C2CCN(C[C@H]3CC[C@H](c4nsc(=O)[nH]4)CC3)CC2)cc1` [Compound I-45, 3-((1r,4r)-4-((4-(4-(2-(2-aminopyridin-3-yl)-5-phenyl-3H-imidazo[4,5-b]pyridin-3-yl)phenyl)piperidin-1-yl)methyl)cyclohexyl)-1,2,4-thiadiazol-5(4H)-one] showed an IC50 (wildtype AKT1) of less than 500 nM and an IC50 (AKT1 E17K) of no less than 500 nM.
For `Nc1ncccc1-c1nc2ccc(-c3ccccc3)nc2n1-c1ccc(C2CCN(C[C@H]3CC[C@@H](c4nsc(=O)[nH]4)CC3)CC2)cc1` [Compound I-46, 3-((1s,4s)-4-((4-(4-(2-(2-aminopyridin-3-yl)-5-phenyl-3H-imidazo[4,5-b]pyridin-3-yl)phenyl)piperidin-1-yl)methyl)cyclohexyl)-1,2,4-thiadiazol-5(4H)-one], the IC50 (wildtype AKT1) was less than 500 nM and the IC50 (AKT1 E17K) was no less than 500 nM.
`CN(Cc1ccc(-n2c(-c3cccnc3N)nc3ccc(-c4ccccc4)nc32)cc1)[C@H]1CC[C@H](c2nsc(=O)[nH]2)CC1` [Compound I-47, 3-((1r,4r)-4-((4-(2-(2-aminopyridin-3-yl)-5-phenyl-3H-imidazo[4,5-b]pyridin-3-yl)benzyl)(methyl)amino)cyclohexyl)-1,2,4-thiadiazol-5(4H)-one] showed an IC50 (wildtype AKT1) of less than 500 nM and an IC50 (AKT1 E17K) of no less than 500 nM.
`CN(Cc1ccc(-n2c(-c3cccnc3N)nc3ccc(-c4ccccc4)nc32)cc1)[C@H]1CC[C@@H](c2nsc(=O)[nH]2)CC1` [Compound I-48, 3-((1s,4s)-4-((4-(2-(2-aminopyridin-3-yl)-5-phenyl-3H-imidazo[4,5-b]pyridin-3-yl)benzyl)(methyl)amino)cyclohexyl)-1,2,4-thiadiazol-5(4H)-one] showed an IC50 (wildtype AKT1) of less than 500 nM and an IC50 (AKT1 E17K) of 50 to 200 nM.
